Legend:
[1] = test system: HepG2, SKHEP-1 and Hep 3B; assay: Albendazole/ABS proliferation test, liver cancer cells; assay type: cell-based, human; conditions: 5 days, 0.5% DMSO
Method: (§1) In order to be able to test ABS, a proper solvent had to be found. […] Therefore to allow direct comparison between the 2 compounds, all subsequent experiments were run using 0.5% DMSO for both ABS and albendazole. In the cell lines examined, albendazole produced very similar results to what we had previously reported for the drug in liver cancer cells.
(§2) Both albendazole and ABS were tested side by side against various cell lines as follows: • Liver—HepGZ Hep3B, SKHEP-1 • Colorectal—170, LOVO, HT-29 • Prostate—PC3, LNCap, Du145 • Leukeamic—HL60
(§3) Cells were treated with various concentrations of each compound for a period of 5 days.

C-170, LOVO and HT-29 = assay: Albendazole/ABS proliferation test, colorectal cell lines; assay type: cell-based; conditions: C-170, LOVO and HT-29, 5 days, 0.5% DMSO
Method: as §1, §2, §3

PC3, LNCap and Du 145 = assay: Albendazole/ABS proliferation test, prostate cancer cells; assay type: cell-based, human; conditions: PC3, LNCap and Du 145; ABS compared with albendazole
Method: as §1, §2, §3

[2] = test system: liver, colorectal, prostate and leukeamic cell lines; assay: Albendazole/ABS side by side in various cell lines (general); assay type: cell-based
Method: as §1, §2
The fist 9 cell lines were used to compare effectiveness and potency while, the last one was used to assess toxicity on bone marrow (as a rough guide).
as §3

Solubility in solvent = assay type: physicochemical
Excerpt: as §1

[3] = sulphoxide metabolite after oral albendazole, man; cited from earlier work

Which “proliferation of human liver cancer cells” value [1] does the source give for `CCC[S+]([O-])c1ccc2[nH]c(NC(=O)OC)nc2c1` (stereo not shown) [ABS, albendazole sulphoxide] here?
The value was “inhibit proliferation”.

What about the “activity against colorectal cell lines” value (C-170, LOVO and HT-29) of the same molecule?
Its value is “same sort of activity”.

And the “potency in inhibiting proliferation, metabolite versus drug” value (PC3, LNCap and Du 145)?
Its value is “almost equipotent”.

What about the “antiproliferative activity at 0.25 micromoles/L” value ([2]; 0.25 micromoles/L, 5 days) of the same molecule?
Its value is “dramatically increasing”.

What about the “effectiveness compared with parent drug” value ([2]; 10 different cell lines, earlier results, latest results cast doubt) of the same molecule?
Its value is “as effective as the parent drug”.

And the inhibition at 1 µM ([2]; 120 h, 1 micromoles/L, 5 days)?
The inhibition at 1 µM was about 100%.

What about the “concentration at which antiproliferative activity becomes evident” value ([2]; 5 days, 0.5% DMSO, in general) of the same molecule?
Its value is 0.01 µmol/L.

And the solubility in ethanol (Solubility in solvent)?
The solubility in ethanol was “not soluble in ethanol”.

And the peak plasma concentrations [3]?
Its peak plasma concentrations is 200 to 300 ng/mL.

What about the plasma half life [3] of the same molecule?
Its plasma half life is 8 to 9 h.
